Molecular target: human truncated cGAS enzyme (147-522 human cGAS) (Homo sapiens (Human), UniProt Q8N884)
Assay: Quantification of cGAS protein inhibition (cGAMP formation measured by LC-MS/MS)
Type: biochemical
Conditions: reported for the potential mixture in solution of co-existing tautomers and/or racemates
Protocol: A reagent buffer was prepared in filtered and autoclaved water according to the following: • 50 mM Tris-buffer pH 7.5 (1 M Tris-buffer pH 7.5, Invitrogen, Cat. No. 15567-027); • 50 mM NaCl (5 M NaCl, Sodium Chloride Solution, Sigma, 59222C-); • 5 mM MgCl2 (1 M MgCl2, Sigma, M1028); • 0.1 mM ZnCl2 (Zinc Chloride [7646-85-7], powder, Cell Culture Tested, Sigma, Z-0152); and • 0.001% Tween 20 (TWEEN 20, Sigma Aldrich, P1379-).
A buffer for the cGAS enzyme was prepared in filtered and autoclaved water according to the following: • 50 mM Tris-buffer pH 7.5; • 5 mM MgCl2; and • 0.001% Tween 20.
Compounds were dispensed to a […]. The human truncated cGAS enzyme (4.2 mg/mL 147-522 human cGAS, MW 43,909 g/mol) was stored in 50 mM Tris, 500 mM NaCl, 5% (v/v) glycerol at pH 8 and diluted in the cGAS buffer enzyme shortly before use. The enzyme solution was transferred into the reagent buffer to give a final concentration of 30 nM. The reaction was started by mixing the enzyme with ISD (a 45 bp double stranded DNA, MW 27,670 g/mol, 5 mM), GTP and ATP to a final concentration of 5 μM, 0.5 mM and 0.5 mM respectively in a final volume of 10 μl. The reaction plates were then centrifuged at 1000 rpm for 1 minute and incubated at room temperature for 1 h. After 1 h of incubation, [^5Ns]-2′3′-cGAMP to a final concentration of 200 nM and 30 μL of 100% acetonitrile/0.175% of TFA were added to the reaction mixture. The plates were centrifuged at 1000 rpm for 1 minute before being sealed for 3 seconds at 170° C. using a ThermoScientific sealer (ALPS™ 50V) and an aluminum sealing cover (Pierce Seal, 4titude, Product Code: 4TI-0531).
The concentration of cGAMP was measured on a LC-MS/MS system consisting of a THERMO Dionex Ultimate LC system with a high pressure pump, an autosampler, a column heating compartment (Reinach, Switzerland) and a SCIEX Triple Quad 5500 (Framingham, MA, USA) mass spectrometer for detection. The sample plates were centrifuged for 10 minutes at 2000 rpm. Up to three plates were placed in the autosampler for injection. An aliquot of 10 μL of each sample was injected on an XBridge BEH Amide 3.5 μm, 2.1×50 mm column (P/N 186004859) with an XBridge BEH Amide 5 μm 2.1×5 mm VanGuard Cartridge (P/N 186007760) pre-column (both WATERS, MA, USA) held at 40° C. An isocratic flow of 1.0 mL/min solvent (60% ACN, 8 mM ammonium acetate, 5 mM ammonium hydroxide, 0.04% acetic acid) was applied and sprayed into the ion source of the mass spectrometers. The MS parameters were optimized based on the properties of the compounds to be detected and run in positive multi-reaction mode (MRM) based on the mass transitions. LC and MS parameters were also optimized to allow for a sample-to-sample measuring time of approximately 75 sec and a run time of 8 hours per 384-well plate. All data were analyzed with Excel; and the dose response curves were generated using the auto fitting function of XLfit. The IC50 was determined by plotting the cGAMP concentration ratio (cGAMP divided by the internal standard [^15Ns]-2′3′-cGAMP) versus the concentration of compound.

human truncated cGAS enzyme (147-522 human cGAS), sequence (Q8N884 147-522): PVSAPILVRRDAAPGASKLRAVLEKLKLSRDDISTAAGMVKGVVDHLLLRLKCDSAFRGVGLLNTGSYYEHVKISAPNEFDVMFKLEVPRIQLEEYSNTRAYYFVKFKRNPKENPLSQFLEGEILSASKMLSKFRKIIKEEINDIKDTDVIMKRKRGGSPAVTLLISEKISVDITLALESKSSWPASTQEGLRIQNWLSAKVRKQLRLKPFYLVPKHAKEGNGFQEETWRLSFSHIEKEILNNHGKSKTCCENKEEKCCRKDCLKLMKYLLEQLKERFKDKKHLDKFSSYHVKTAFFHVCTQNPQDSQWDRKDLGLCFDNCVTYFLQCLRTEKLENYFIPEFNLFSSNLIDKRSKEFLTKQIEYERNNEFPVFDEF

IC50 | SMILES
0.122 µM | COCC(c1nnc(-c2c(-n3ccnc3)c3cc(OC)c(Cl)c(F)c3n2C)[nH]1)N(C)C (racemic) [Example 124, 1-(5-(6-chloro-7-fluoro-3-(1H-imidazol-1-yl)-5-methoxy-1-methyl-1H-indol-2-yl)-4H-1,2,4-triazol-3-yl)-2-methoxy-N,N-dimethylethan-1-amine]
0.074 µM | CNC(COC)c1nnc(-c2c(-n3ccnc3)c3cc(OC)c(Cl)c(F)c3n2C)[nH]1 (racemic) [Example 125, 1-(5-(6-chloro-7-fluoro-3-(1H-imidazol-1-yl)-5-methoxy-1-methyl-1H-indol-2-yl)-4H-1,2,4-triazol-3-yl)-2-methoxy-N-methylethan-1-amine]

Same assay, conditions: reported for the potential mixture of co-existing tautomers and/or racemates

IC50 | SMILES
0.074 µM | COc1cc2c(-c3cn[nH]c3)c(-c3nnc(C(F)(F)F)[nH]3)n(C)c2c(F)c1Cl [Example 1, 6-Chloro-7-fluoro-5-methoxy-1-methyl-3-(1H-pyrazol-4-yl)-2-(5-(trifluoromethyl)-4H-1,2,4-triazol-3-yl)-1H-indole]
0.046 µM | COc1cc2c(-c3cn[nH]c3)c(-c3nnc(C(=O)N(C)C)[nH]3)n(C)c2c(F)c1Cl [Example 2, 5-(6-chloro-7-fluoro-5-methoxy-1-methyl-3-(1H-pyrazol-4-yl)-1H-indol-2-yl)-N,N-dimethyl-4H-1,2,4-triazole-3-carboxamide]
0.03 µM | COc1cc2c(-c3cn[nH]c3)c(-c3nnc(F)[nH]3)[nH]c2c(F)c1Cl [Example 3, 6-chloro-7-fluoro-2-(5-fluoro-4H-1,2,4-triazol-3-yl)-5-methoxy-3-(1H-pyrazol-4-yl)-1H-indole]
0.033 µM | COc1cc2c(-c3cn[nH]c3)c(-c3nnc(C(F)(F)F)[nH]3)[nH]c2c(F)c1Cl [Example 4, 6-chloro-7-fluoro-5-methoxy-3-(1H-pyrazol-4-yl)-2-(5-(trifluoromethyl)-4H-1,2,4-triazol-3-yl)-1H-indole]
0.093 µM | Clc1ccc2c(-c3cn[nH]c3)c(-c3nnc(Br)[nH]3)[nH]c2c1Cl [Example 5, 2-(5-bromo-4H-1,2,4-triazol-3-yl)-6,7-dichloro-3-(1H-pyrazol-4-yl)-1H-indole]
0.152 µM | N#Cc1cc2c(-c3cn[nH]c3)c(-c3nnc(C(F)(F)F)[nH]3)[nH]c2c(F)c1Cl [Example 6, 6-chloro-7-fluoro-3-(1H-pyrazol-4-yl)-2-(5-(trifluoromethyl)-4H-1,2,4-triazol-3-yl)-1H-indole-5-carbonitrile]
0.03 µM | COCC(=O)c1nnc(-c2[nH]c3c(Cl)c(Cl)ccc3c2-c2cn[nH]c2)[nH]1 [Example 7, 1-(5-(6,7-dichloro-3-(1H-pyrazol-4-yl)-1H-indol-2-yl)-4H-1,2,4-triazol-3-yl)-2-methoxyethan-1-one]
0.134 µM | Cn1c(-c2nnc(C(F)(F)F)[nH]2)c(-c2cn[nH]c2)c2cc(C#N)c(Cl)c(F)c21 [Example 8, 6-chloro-7-fluoro-1-methyl-3-(1H-pyrazol-4-yl)-2-(5-(trifluoromethyl)-4H-1,2,4-triazol-3-yl)-1H-indole-5-carbonitrile]
0.03 µM | COCC(F)(F)c1nnc(-c2[nH]c3c(Cl)c(Cl)ccc3c2-c2cn[nH]c2)[nH]1 [Example 9, 6,7-dichloro-2-(5-(1,1-difluoro-2-methoxyethyl)-4H-1,2,4-triazol-3-yl)-3-(1H-pyrazol-4-yl)-1H-indole]
0.074 µM | COCC(F)c1nnc(-c2[nH]c3c(Cl)c(Cl)ccc3c2-c2cn[nH]c2)[nH]1 (stereo not drawn) [Example 10, 6,7-dichloro-2-(5-(1-fluoro-2-methoxyethyl)-4H-1,2,4-triazol-3-yl)-3-(1H-pyrazol-4-yl)-1H-indole]
0.048 µM | Cn1c(-c2nnc(C(F)(F)F)[nH]2)c(-c2cn[nH]c2)c2ccc(Cl)c(Cl)c21 [Example 12, 6,7-dichloro-1-methyl-3-(1H-pyrazol-4-yl)-2-(5-(trifluoromethyl)-4H-1,2,4-triazol-3-yl)-1H-indole]
0.178 µM | FC(F)(F)Cc1nnc(-c2[nH]c3c(Cl)c(Cl)ccc3c2-c2cn[nH]c2)[nH]1 [Example 13, 6,7-dichloro-3-(1H-pyrazol-4-yl)-2-(5-(2,2,2-trifluoroethyl)-4H-1,2,4-triazol-3-yl)-1H-indole]
0.196 µM | Fc1ccc2c(-c3cn[nH]c3)c(-c3nnc(C(F)(F)F)[nH]3)[nH]c2c1F [Example 14, 6,7-difluoro-3-(1H-pyrazol-4-yl)-2-(5-(trifluoromethyl)-4H-1,2,4-triazol-3-yl)-1H-indole]
0.188 µM | OCCc1nnc(-c2[nH]c3c(Cl)c(Cl)ccc3c2-c2cn[nH]c2)[nH]1 [Example 15, 2-(5-(6,7-dichloro-3-(1H-pyrazol-4-yl)-1H-indol-2-yl)-4H-1,2,4-triazol-3-yl)ethan-1-ol]
0.044 µM | Fc1c(Cl)ccc2c(-c3cn[nH]c3)c(-c3nnc(C(F)(F)F)[nH]3)[nH]c12 [Example 16, 6-chloro-7-fluoro-3-(1H-pyrazol-4-yl)-2-(5-(trifluoromethyl)-4H-1,2,4-triazol-3-yl)-1H-indole]
1.49 µM | COc1c(Cl)ccc2c(-c3cn[nH]c3)c(-c3nnc(C(F)(F)F)[nH]3)[nH]c12 [Example 17, 6-chloro-7-methoxy-3-(1H-pyrazol-4-yl)-2-(5-(trifluoromethyl)-4H-1,2,4-triazol-3-yl)-1H-indole]
0.165 µM | FC(F)(F)c1nnc(-c2[nH]c3cc(Cl)c(Cl)cc3c2-c2cn[nH]c2)[nH]1 [Example 18, 5,6-dichloro-3-(1H-pyrazol-4-yl)-2-(5-(trifluoromethyl)-4H-1,2,4-triazol-3-yl)-1H-indole]
0.15 µM | N#Cc1c(Cl)ccc2c(-c3cn[nH]c3)c(-c3nnc(C(F)(F)F)[nH]3)[nH]c12 [Example 19, 6-chloro-3-(1H-pyrazol-4-yl)-2-(5-(trifluoromethyl)-4H-1,2,4-triazol-3-yl)-1H-indole-7-carbonitrile]
0.116 µM | COc1cc2c(-c3cn[nH]c3)c(-c3nnc(C(F)(F)F)[nH]3)n(C)c2cc1Cl [Example 20, 6-chloro-5-methoxy-1-methyl-3-(1H-pyrazol-4-yl)-2-(5-(trifluoromethyl)-4H-1,2,4-triazol-3-yl)-1H-indole]
0.03 µM | CCOC(=O)c1nnc(-c2[nH]c3c(Cl)c(Cl)ccc3c2-c2cn[nH]c2)[nH]1 [Example 21, ethyl 5-(6,7-dichloro-3-(1H-pyrazol-4-yl)-1H-indol-2-yl)-4H-1,2,4-triazole-3-carboxylate]
0.03 µM | NC(=O)c1nnc(-c2[nH]c3c(Cl)c(Cl)ccc3c2-c2cn[nH]c2)[nH]1 [Example 22, 5-(6,7-dichloro-3-(1H-pyrazol-4-yl)-1H-indol-2-yl)-4H-1,2,4-triazole-3-carboxamide]
0.112 µM | Cn1c(-c2nnc(C(F)(F)F)[nH]2)c(-c2cn[nH]c2)c2cc(Cl)c(Cl)cc21 [Example 23, 5,6-dichloro-1-methyl-3-(1H-pyrazol-4-yl)-2-(5-(trifluoromethyl)-4H-1,2,4-triazol-3-yl)-1H-indole]
0.069 µM | COc1cc2c(-c3cn[nH]c3)c(-c3nnc(C(F)(F)F)[nH]3)[nH]c2cc1Cl [Example 24, 6-chloro-5-methoxy-3-(1H-pyrazol-4-yl)-2-(5-(trifluoromethyl)-4H-1,2,4-triazol-3-yl)-1H-indole]
1.43 µM | COc1cc2c(-c3cn[nH]c3)c(-c3nnc(C(F)(F)F)[nH]3)n(CCO)c2cc1Cl [Example 25, 2-(6-chloro-5-methoxy-3-(1H-pyrazol-4-yl)-2-(5-(trifluoromethyl)-4H-1,2,4-triazol-3-yl)-1H-indol-1-yl)ethan-1-ol]
1.81 µM | COCCn1c(-c2nnc(C(F)(F)F)[nH]2)c(-c2cn[nH]c2)c2cc(OC)c(Cl)cc21 [Example 26, 6-chloro-5-methoxy-1-(2-methoxyethyl)-3-(1H-pyrazol-4-yl)-2-(5-(trifluoromethyl)-4H-1,2,4-triazol-3-yl)-1H-indole]
